Measured values published in the NIST ThermoML archive (doi:10.1021/je100577v).
Numbers after ± are expanded uncertainties.

Legend:
[1] = Liquid; for mass density: Vibrating tube method; for vapor or sublimation pressure: Ebulliometric method (Recirculating still)
[2] = xn = mol fraction of the nth substance listed; details: Liquid, Vibrating tube method, x2 = 0

CC12CCC(CC1)C(C)(C)O2 [1,3,3-trimethyl-2-oxabicyclo[2.2.2]octane]
mass density [kg/m3], [1]
Details | 20000 kPa | 25000 kPa | 30000 kPa | 35000 kPa | 40000 kPa
283.15 K | 945.9 ± 1 | 949.1 ± 1 | 952 ± 1 | 954.9 ± 1 | 957.6 ± 1
298.15 K | 934.1 ± 1 | 937.4 ± 1 | 940.5 ± 1 | 943.4 ± 1 | 946.4 ± 1
313.15 K | 922.3 ± 1 | 925.8 ± 1 | 929.1 ± 1 | 932.4 ± 1 | 935.5 ± 1
328.15 K | 910.6 ± 1 | 914.3 ± 1 | 917.9 ± 1 | 921.3 ± 1 | 924.7 ± 1

[1]
Details | vapor or sublimation pressure [kPa]
326.65 K | 1.33 ± 0.11
341.55 K | 2.67 ± 0.11
357.25 K | 5.33 ± 0.12
363.45 K | 6.67 ± 0.17
381.45 K | 13.33 ± 0.21
392.75 K | 20 ± 0.28
401.75 K | 26.66 ± 0.35
408.65 K | 33.33 ± 0.43
414.65 K | 40 ± 0.48
419.95 K | 46.66 ± 0.54
424.65 K | 53.33 ± 0.61
428.85 K | 60 ± 0.67
432.75 K | 66.66 ± 0.72
436.35 K | 73.33 ± 0.77
439.75 K | 79.99 ± 0.83
442.85 K | 86.66 ± 0.88
445.85 K | 93.33 ± 0.9
448.65 K | 99.61 ± 1.4
449.15 K | 101.33 ± 1.4

CCCO [propan-1-ol]
mass density [kg/m3], [1]
Details | 20000 kPa | 25000 kPa | 30000 kPa | 35000 kPa | 40000 kPa
283.15 K | 825.1 ± 1 | 828.4 ± 1 | 831.5 ± 1 | 834.5 ± 1 | 837.4 ± 1.1
298.15 K | 814.2 ± 1 | 817.6 ± 1 | 820.9 ± 1 | 824 ± 1.1 | 827.1 ± 1.1
313.15 K | 803.1 ± 1 | 806.9 ± 1 | 810.4 ± 1 | 813.7 ± 1.1 | 817 ± 1.1
328.15 K | 792 ± 1 | 795.8 ± 1 | 799.6 ± 1.1 | 803.1 ± 1.1 | 806.6 ± 1.1

[1]
Details | vapor or sublimation pressure [kPa]
319.65 K | 10 ± 0.28
327.25 K | 15 ± 0.32
332.95 K | 20 ± 0.4
337.45 K | 25 ± 0.49
341.25 K | 30 ± 0.55
343.55 K | 33.33 ± 0.6
344.65 K | 35 ± 0.66
347.65 K | 40 ± 0.71
350.35 K | 45 ± 0.79
352.75 K | 50 ± 0.86
355.05 K | 55 ± 0.93
357.05 K | 60 ± 1
359.05 K | 65 ± 1
359.65 K | 66.66 ± 1.1
360.85 K | 70 ± 1.2
362.55 K | 75 ± 1.2
364.15 K | 80 ± 1.3
365.65 K | 85 ± 1.3
367.15 K | 90 ± 1.5
370.05 K | 101.33 ± 1.6

CCCO [propan-1-ol] + CC12CCC(CC1)C(C)(C)O2
mass density [kg/m3], [2]
Details | 20000 kPa | 25000 kPa | 30000 kPa | 35000 kPa | 40000 kPa
283.15 K | 825.1 ± 1 | 828.4 ± 1 | 831.5 ± 1 | 834.5 ± 1 | 837.4 ± 1.1
298.15 K | 814.2 ± 1 | 817.6 ± 1 | 820.9 ± 1 | 824 ± 1.1 | 827.1 ± 1.1
313.15 K | 803.1 ± 1 | 806.9 ± 1 | 810.4 ± 1 | 813.7 ± 1.1 | 817 ± 1.1
328.15 K | 792 ± 1 | 795.8 ± 1 | 799.6 ± 1.1 | 803.1 ± 1.1 | 806.6 ± 1.1
